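Tested at 5 concentrations; 48 h exposure; 96-well plates; endpoints linearly interpolated, else capped at highest concentration. The concentration for 50% growth inhibition is given as GI50.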 Calls of active or inactive are those of the source. Cut-off read from the data, not from the text of the source: active = GI50 up to about 1.1 µM and inactive = higher. A value given as a limit tells only on which side of the number the result lay.

Test systems include 786-0; ACHN; CAKI-1; DU-145; HCC 2998; HOP-62; HT-29; KM12; MOLT-4; Malme-3M; NCI-H23; NCI-H460; NCI/ADR-RES; OVCAR-3; OVCAR-5; PC-3; SF-295; T47D; TK-10; UACC-257.
What all share (assay): NCI anticancer screen, dose series, 48 h

For `O=c1c2ccccc2c2c1c1c3ccccc3c(=O)c1c1c3ccccc3c(=O)c21`, the GI50 in the test with 786-0, in the test on ACHN, in the test on CAKI-1, in the test on DU-145, with HCC 2998 and with HOP-62 was > 100 µM (inactive) in each case. Further, the GI50 with HT-29, in the test on KM12, in the test on MOLT-4, in the test with Malme-3M, in the test with NCI-H23 and in the test with NCI-H460 was > 100 µM (inactive) throughout. Besides, the GI50 in the test on NCI/ADR-RES, in the test on OVCAR-3, in the test on OVCAR-5, in the test on PC-3, in the test with SF-295 and with T47D was > 100 µM (inactive) in each case. For the same molecule, the GI50 with TK-10 and in the test on UACC-257 was > 100 µM (inactive) each time.

Consider `COc1ccc(CCNC2=CC(=O)c3ncccc3C2=O)cc1OC`, for which the GI50 was 3.31 µM (inactive) with 786-0; 3.67 µM (inactive) in the test on ACHN; 1.71 µM (inactive) in the test on CAKI-1; 1.67 µM (inactive) in the test on DU-145; 1.94 µM (inactive) in the test on HCC 2998; 1.89 µM (inactive) in the test with HOP-62. The GI50 with HT-29 is 2.12 µM (inactive); in the test on KM12 it was 3.59 µM (inactive); in the test on MOLT-4 it was 5.05 µM (inactive); with Malme-3M it was 0.682 µM (active); in the test on NCI-H23, 0.346 µM (active); in the test on NCI-H460, 0.394 µM (active). Moreover, the GI50 was 2.28 µM (inactive) in the test with NCI/ADR-RES; 0.514 µM (active) in the test with OVCAR-3; 2.7 µM (inactive) in the test on OVCAR-5; 2.54 µM (inactive) in the test on PC-3; 0.794 µM (active) in the test on SF-295; 5.09 µM (inactive) in the test with T47D. Also, the GI50 was 24.3 µM (inactive) with TK-10 and 1.19 µM (inactive) in the test with UACC-257.

Regarding `COc1ccc(Nc2nc(N)c(C(=O)c3ccco3)s2)cc1`, the GI50 in the test with 786-0 was > 40 µM (inactive); with ACHN, 47.8 µM (inactive); in the test with CAKI-1 it was 50 µM (inactive); with DU-145, 38.4 µM (inactive); in the test with HCC 2998 it was 15.7 µM (inactive); in the test with HOP-62, > 63.8 µM (inactive). In addition, the GI50 in the test with HT-29 is 7.78 µM (inactive); with KM12 it was 8.59 µM (inactive); in the test with MOLT-4, 3.61 µM (inactive); with Malme-3M, > 90.2 µM (inactive); in the test on NCI-H23, > 61.4 µM (inactive); in the test with NCI-H460 it was 13.7 µM (inactive). Moreover, the GI50 in the test with NCI/ADR-RES is 26.1 µM (inactive); in the test on OVCAR-3, 20.6 µM (inactive); in the test on OVCAR-5, > 83.2 µM (inactive); in the test with PC-3 it was 53.6 µM (inactive); in the test with SF-295, 31.6 µM (inactive); with T47D, > 60.5 µM (inactive). In addition, the values for the GI50 in the test with TK-10 and in the test with UACC-257 were 10.8 µM (inactive) and 41.7 µM (inactive), respectively.

The record behind these values is ChEMBL document CHEMBL1201862, “PubChem BioAssay data set” (2004).
